{"source": "patent US9353152B2", "about": "“Induction of the mitochondrial permeability transition” (NewSouth Innovations Pty Limited, priority 2002, dated 2016)", "key": {"BAE cells [1]": {"system": "BAE cells", "format": "cell-based, bovine"}, "[2]": {"assay": "Tolerability in tumour-bearing mice", "format": "in vivo, SCID or C57Bl6/J mice", "protocol": "(§1) Female 7 to 9 week old SCID or C57Bl6/J mice were used (Massachusetts General Hospital, Boston, Mass.). Mice were held in groups of 3 to 5 at a 12 hour day and night cycle and were given animal chow and water ad libidum. SCID or C57Bl6/J mice were anaesthetised by inhalation of isoflurane, the dorsal skin shaved and cleaned with ethanol, and a suspension of 2.5×10^6 BxPC-3, HT1080 or LLC cells in 0.2 mL of PBS, or saline for LLC cells, was injected S.C. in the proximal midline. LLC cells were prepared according to O'Reilly et al. (1997). Tumour volume was calculated using the relationship, a·b^2·0.52, where a is the longest and b the shortest diameter."}, "BAE cells [3]": {"system": "BAE cells", "assay": "Cell viability assay, attached cells (methylene blue), proliferating or growth-quiescent cells", "format": "cell-based, bovine", "experimental": "BAE or HMEC-1 cells were seeded at a density of 10^4 cells per cell into 96 well plates and allowed to adhere overnight and then treated as indicated."}, "[4]": {"assay": "Titration of arsenoxide compounds with DTT", "format": "physicochemical", "details": "GSAO versus Compound 1"}, "BAE cells [5]": {"system": "BAE cells", "assay": "Mitochondrial mass (nonyl acridine orange uptake)", "format": "cell-based, bovine", "details": "GSAO treatment 24 h, proliferating and growth-quiescent cells", "protocol": "For measurements of superoxide levels with dihydroethidine, mitochondrial membrane potential with JC-1, mitochondrial mass with nonyl acridine orange, and apoptosis with annexin V, proliferating or growth-quiescent BAE cells were treated for 24 or 48 h with GSAO in six-well culture plates, then detached with trypsin/EDTA, washed once, and resuspended at 2×10^6 cells per mL in serum-free medium. Cells were then incubated for 15 min at room temperature with dihydroethidine (5 μM, Molecular Probes) or 30 min at room temperature with JC-1 (0.5 μg·mL^−1, Molecular Probes), annexin V-FITC (50 μl·mL^−1) (Pharmingen, La Jolla, Calif., USA), or acridine orange 10-nonyl bromide (5 μM, Molecular Probes). Cells were then washed once, resuspended in 0.5 mL serum-free medium, transferred to ice, and fluorescence was quantitated immediately by flow cytometry."}, "[6]": {"system": "human pancreatic carcinoma BxPC-3 cells", "assay": "Cell proliferation and viability assay (MTT)", "format": "cell-based", "details": "10% serum, 48 h; read-out: IC50 for proliferation arrest of BxPC-3 cells", "protocol": "(§2) BAE or human pancreatic carcinoma BxPC-3 cells were seeded at a density of 10^3 cells per well into 96 well plates in DMEM containing 10% foetal bovine serum and allowed to adhere for 24 h. Cells were washed and incubated with DMEM containing 10% foetal bovine serum and GSAO or o-GSAO and cultured for a further 48 h. Some BAE cells were arrested for 24 h in medium containing 0.25% serum and cultured for a further 48 h in medium containing 0.25% or 10% serum, in the presence of GSAO or o-GSAO. Viable attached cells were determined using MTT."}, "[7]": {"system": "HL60 (human erythroid leukaemia)", "assay": "Proliferation arrest and loss of viability (cell number and propidium iodide, flow cytometry)", "format": "cell-based", "details": "HL60, 48 h", "protocol": "(§3) To distinguish between the anti-proliferative and pro-apoptotic effects of GSAO, treated cells were stained with propidium iodide (PI) to detect late-apoptotic or dead cells. The total number of cells and the proportion of cells that were PI-positive following 48 h treatment with GSAO were measured by flow cytometry."}, "[8]": {"system": "A549 (human lung carcinoma)", "assay": "Proliferation arrest and loss of viability (cell number and propidium iodide, flow cytometry)", "format": "cell-based", "details": "A549, 48 h", "protocol": "as §3"}, "[9]": {"system": "LLC (murine lung carcinoma)", "assay": "Proliferation arrest and loss of viability (cell number and propidium iodide, flow cytometry)", "format": "cell-based", "details": "48 h", "protocol": "as §3"}, "[10]": {"system": "HDMVE (human dermal endothelial)", "assay": "Proliferation arrest and loss of viability (cell number and propidium iodide, flow cytometry)", "format": "cell-based", "details": "48 h", "protocol": "as §3"}, "[11]": {"system": "HT1080 (human fibrosarcoma)", "assay": "Proliferation arrest and loss of viability (cell number and propidium iodide, flow cytometry)", "format": "cell-based", "details": "HT1080, 48 h", "protocol": "as §3"}, "[12]": {"system": "BxPC-3 (human pancreatic carcinoma)", "assay": "Proliferation arrest and loss of viability (cell number and propidium iodide, flow cytometry)", "format": "cell-based", "details": "for IC50: BxPC-3, 48 h", "protocol": "as §3"}, "[13]": {"system": "BAE (bovine aortic endothelial)", "assay": "Proliferation arrest and loss of viability (cell number and propidium iodide, flow cytometry)", "format": "cell-based", "details": "48 h", "protocol": "as §3"}, "BAE cells [14]": {"system": "BAE cells", "assay": "Cell proliferation and viability assay (MTT)", "format": "cell-based, bovine", "details": "10% serum, 48 h; read-out: IC50 for proliferation arrest of BAE cells", "protocol": "as §2"}, "LLC tumours": {"system": "LLC tumours", "assay": "Primary tumour growth assay", "format": "in vivo", "details": "10 mg/kg/day s.c., C57Bl6/J mice", "protocol": "as §1"}, "HT1080 tumours": {"system": "HT1080 tumours", "assay": "Primary tumour growth assay", "format": "in vivo", "details": "10 mg/kg/day s.c., SCID mice", "protocol": "as §1"}, "BxPC-3 tumours": {"system": "BxPC-3 tumours", "assay": "Primary tumour growth assay", "format": "in vivo, SCID mice", "details": "10 mg/kg/day s.c., SCID mice, BxPC-3", "protocol": "as §1"}, "MPTP": {"molecular_target": "T1, MPTP (Rattus norvegicus, UniProt Q09073)", "T1 construct": "Mitochondria were isolated from the livers of ˜250 g male Wistar rats; from tissue; host or cells: rat liver mitochondria (male Wistar rats)", "T1 sequence (Q09073 2-298 limits assumed)": "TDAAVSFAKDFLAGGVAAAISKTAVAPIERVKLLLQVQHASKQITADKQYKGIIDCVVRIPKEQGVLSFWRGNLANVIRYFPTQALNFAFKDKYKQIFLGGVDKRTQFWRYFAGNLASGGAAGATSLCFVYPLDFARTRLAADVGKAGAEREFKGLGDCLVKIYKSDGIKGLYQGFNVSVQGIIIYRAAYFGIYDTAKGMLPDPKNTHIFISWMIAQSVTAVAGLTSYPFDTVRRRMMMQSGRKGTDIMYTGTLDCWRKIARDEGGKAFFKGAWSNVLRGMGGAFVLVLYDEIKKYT", "format": "biochemical"}, "[15]": {"details": "read-out: Loss of Viability IC50"}, "[16]": {"details": "read-out: Proliferation Arrest IC50"}}, "note": "Values joined by “and” are separate entries in the source; they are usually repeats but may differ in a detail not shown here. Equal values may be shown once. Read-outs that look alike come from different tables or passages of the source.", "data": [{"smiles": "N[C@@H](CCC(=O)N[C@@H](CSCC(=O)Nc1ccc([As]=O)cc1)C(=O)NCC(=O)O)C(=O)O", "note": "(some centres unmarked) [GSAO, 4-(N—(S-glutathionylacetyl)amino)-phenylarsenoxide]", "values": [{"measurement": "cellular levels of O2^− versus concentration", "setting": "BAE cells [1]", "result": "increased linearly with GSAO concentration in proliferating, but not growth-quiescent, BAE cells"}, {"measurement": "decrease in H2O2", "setting": "BAE cells [1]", "result": 30, "unit": "%"}, {"measurement": "increase in the level of O2^−", "setting": "BAE cells [1]", "result": 100, "unit": "%"}, {"measurement": "adverse affects of administration", "setting": "[2]; 10 mg/kg/day s.c.", "result": "no apparent adverse affects"}, {"measurement": "morphological changes in the heart, lungs, liver, kidneys, and spleen", "setting": "[2]; 10 mg/kg/day s.c.", "result": "no morphological changes"}, {"measurement": "average mice weights over the course of the experiments", "setting": "[2]; GSAO versus GSAA treatment groups", "result": "the same"}, {"measurement": "effect on viability of growth-quiescent BAE cells", "setting": "BAE cells [3]", "result": "little effect"}, {"measurement": "arsenical reactivity (titration with DTT)", "setting": "[4]", "result": "no significant difference"}, {"measurement": "mitochondrial mass", "setting": "BAE cells [5]", "result": "unchanged"}, {"measurement": "IC50", "setting": "[6]", "result": "> 300", "unit": "µM"}, {"measurement": "IC50", "setting": "[7]; [15]", "result": 140, "unit": "µM"}, {"measurement": "IC50", "setting": "[7]; [16]", "result": 50, "unit": "µM"}, {"measurement": "IC50", "setting": "[8]; [15]", "result": 150, "unit": "µM"}, {"measurement": "IC50", "setting": "[8]; [16]", "result": 80, "unit": "µM"}, {"measurement": "IC50", "setting": "[9]", "result": 140, "unit": "µM"}, {"measurement": "IC50", "setting": "[10]; [15]", "result": "~35 µM and 35 µM"}, {"measurement": "IC50", "setting": "[10]; [16]", "result": "~15 µM and 15 µM"}, {"measurement": "IC50", "setting": "[11]; [15]", "result": 130, "unit": "µM"}, {"measurement": "IC50", "setting": "[11]; [16]", "result": 95, "unit": "µM"}, {"measurement": "IC50", "setting": "[12]; [15]", "result": "> 320", "unit": "µM"}, {"measurement": "IC50", "setting": "[12]; [16]", "result": "> 320", "unit": "µM"}, {"measurement": "concentration without effect on BxPC-3 proliferation relative to endothelial proliferation arrest", "setting": "[12]; Table 1", "result": "> 30", "unit": "fold"}, {"measurement": "IC50", "setting": "[13]; [15]", "result": "~75 µM and 75 µM"}, {"measurement": "IC50", "setting": "[13]; [16]", "result": "~10 µM and 10 µM"}, {"measurement": "IC50", "setting": "BAE cells [14]", "result": "8.3 ± 2.1", "unit": "µM"}, {"measurement": "inhibition of the rate of tumour growth", "setting": "LLC tumours", "result": "~50", "unit": "%"}, {"measurement": "inhibition of the rate of tumour growth", "setting": "HT1080 tumours", "result": "~70", "unit": "%"}, {"measurement": "inhibition of the rate of tumour growth", "setting": "BxPC-3 tumours", "result": "> 90", "unit": "%"}, {"measurement": "MPTP Swelling Rate Increase/GSAO* Mean", "setting": "MPTP", "result": 1}]}]}
